Test system: IGROV1 complex spheroids (HUVEC, MSC), viability % test/control
Test: Anticancer human tumor IGROV1 cell line growth inhibition [GQUAD];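 note: spheroids exposed to compounds for 7 days before readout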;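 for viability, T/C: 100% = DMSO vehicle control viability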
Conditions: for IC50: curve of first compound; for viability, T/C: stronger effect = lower value
Summary of the method: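 Multi-cell-type spheroids of tumor cells with HUVEC and mesenchymal stem cells, treated with drug combinations. Concentrations descend in half-log steps from near clinical Cmax, or from 10 microM where Cmax is unknown; viability read-out.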

[1] = second compound 0.0316 µM, first compound 0.0316 µM
[2] = second compound 0.0316 µM, first compound 0.1 µM
[3] = second compound 0.0316 µM, first compound 0.316 µM
[4] = second compound 0.0316 µM, first compound 1 µM
[5] = second compound 0.0316 µM, first compound 3.16 µM
[6] = second compound 0.0316 µM, first compound 10 µM
[7] = second compound 0.1 µM, first compound 0.0316 µM
[8] = second compound 0.1 µM, first compound 0.1 µM
[9] = second compound 0.1 µM, first compound 0.316 µM
[10] = second compound 0.1 µM, first compound 1 µM
[11] = second compound 0.1 µM, first compound 3.16 µM
[12] = second compound 0.1 µM, first compound 10 µM
[13] = second compound 0.316 µM, first compound 0.0316 µM
[14] = second compound 0.316 µM, first compound 0.1 µM
[15] = second compound 0.316 µM, first compound 0.316 µM
[16] = second compound 0.316 µM, first compound 1 µM
[17] = second compound 0.316 µM, first compound 3.16 µM
[18] = second compound 0.316 µM, first compound 10 µM
[19] = second compound 1 µM, first compound 0.0316 µM
[20] = second compound 1 µM, first compound 0.1 µM
[21] = second compound 1 µM, first compound 0.316 µM
[22] = second compound 1 µM, first compound 1 µM
[23] = second compound 1 µM, first compound 3.16 µM
[24] = second compound 1 µM, first compound 10 µM
[25] = second compound 3.16 µM, first compound 0.0316 µM
[26] = second compound 3.16 µM, first compound 0.1 µM
[27] = second compound 3.16 µM, first compound 0.316 µM
[28] = second compound 3.16 µM, first compound 1 µM
[29] = second compound 3.16 µM, first compound 3.16 µM
[30] = second compound 3.16 µM, first compound 10 µM
[31] = second compound 10 µM, first compound 0.0316 µM
[32] = second compound 10 µM, first compound 0.1 µM
[33] = second compound 10 µM, first compound 0.316 µM
[34] = second compound 10 µM, first compound 1 µM
[35] = second compound 10 µM, first compound 3.16 µM
[36] = second compound 10 µM, first compound 10 µM

Question: CC(=O)O[C@H]1C(=O)[C@@]2(C)[C@H]([C@H](OC(=O)c3ccccc3)[C@]3(O)C[C@H](OC(=O)[C@H](O)[C@@H](NC(=O)c4ccccc4)c4ccccc4)C(C)=C1C3(C)C)[C@]1(OC(C)=O)CO[C@@H]1C[C@@H]2O + CN(C)c1ccc(Nc2c3ccc(NC(=O)CCN4CCCC4)cc3nc3cc(NC(=O)CCN4CCCC4)ccc23)cc1 was tested. Which IC50 (second compound 0.0316 µM) did it give?
Answer: < 31.6 nM

Question: And the IC50 (second compound 0.1 µM)?
Answer: < 31.6 nM

Question: And the IC50 (second compound 0.316 µM)?
Answer: < 31.6 nM

Question: And the IC50 (second compound 1 µM)?
Answer: < 31.6 nM

Question: What about the IC50 (second compound 3.16 µM) of the same molecule?
Answer: < 31.6 nM

Question: What about the IC50 (second compound 10 µM) of the same molecule?
Answer: < 31.6 nM

Question: What about the viability, T/C [1] of the same molecule?
Answer: 7.64%

Question: And the viability, T/C [2]?
Answer: 6.24%

Question: And the viability, T/C [3]?
Answer: 6.32%

Question: What about the viability, T/C [4] of the same molecule?
Answer: 5.33%

Question: What about the viability, T/C [5] of the same molecule?
Answer: 5%

Question: And the viability, T/C [6]?
Answer: 6.24%

Question: What about the viability, T/C [7] of the same molecule?
Answer: 7.68%

Question: What about the viability, T/C [8] of the same molecule?
Answer: 5.09%

Question: What about the viability, T/C [9] of the same molecule?
Answer: 5.96%

Question: And the viability, T/C [10]?
Answer: 5.48%

Question: What about the viability, T/C [11] of the same molecule?
Answer: 6.36%

Question: What about the viability, T/C [12] of the same molecule?
Answer: 6.3%

Question: And the viability, T/C [13]?
Answer: 8.36%

Question: What about the viability, T/C [14] of the same molecule?
Answer: 5.82%

Question: And the viability, T/C [15]?
Answer: 5.8%

Question: And the viability, T/C [16]?
Answer: 5.16%

Question: And the viability, T/C [17]?
Answer: 5.67%

Question: And the viability, T/C [18]?
Answer: 6.87%

Question: What about the viability, T/C [19] of the same molecule?
Answer: 7.67%

Question: And the viability, T/C [20]?
Answer: 6.92%

Question: What about the viability, T/C [21] of the same molecule?
Answer: 6.05%

Question: What about the viability, T/C [22] of the same molecule?
Answer: 5.19%

Question: And the viability, T/C [23]?
Answer: 6.15%

Question: And the viability, T/C [24]?
Answer: 5.74%

Question: And the viability, T/C [25]?
Answer: 6.2%

Question: What about the viability, T/C [26] of the same molecule?
Answer: 8.18%

Question: What about the viability, T/C [27] of the same molecule?
Answer: 6.89%

Question: What about the viability, T/C [28] of the same molecule?
Answer: 5.22%

Question: What about the viability, T/C [29] of the same molecule?
Answer: 6.1%

Question: And the viability, T/C [30]?
Answer: 5.7%

Question: What about the viability, T/C [31] of the same molecule?
Answer: 7.12%

Question: What about the viability, T/C [32] of the same molecule?
Answer: 6.03%

Question: And the viability, T/C [33]?
Answer: 5.99%

Question: And the viability, T/C [34]?
Answer: 4.33%

Question: What about the viability, T/C [35] of the same molecule?
Answer: 4.7%

Question: What about the viability, T/C [36] of the same molecule?
Answer: 4.57%

Question: Which IC50 (second compound 0.0316 µM) does the source give for CC(C)(O)C1CCC(Nc2ccc3ncc(-c4cccc(C(F)(F)F)c4)n3n2)CC1 (centres undefined) + CN(C)c1ccc(Nc2c3ccc(NC(=O)CCN4CCCC4)cc3nc3cc(NC(=O)CCN4CCCC4)ccc23)cc1 here?
Answer: 2180 nM

Question: What about the IC50 (second compound 0.1 µM) of the same molecule?
Answer: 2240 nM

Question: What about the IC50 (second compound 0.316 µM) of the same molecule?
Answer: 1420 nM

Question: And the IC50 (second compound 1 µM)?
Answer: 1750 nM

Question: What about the IC50 (second compound 3.16 µM) of the same molecule?
Answer: 1370 nM

Question: What about the IC50 (second compound 10 µM) of the same molecule?
Answer: 134 nM

Question: And the viability, T/C [1]?
Answer: 103%

Question: And the viability, T/C [2]?
Answer: 83.8%

Question: What about the viability, T/C [3] of the same molecule?
Answer: 74.8%

Question: What about the viability, T/C [4] of the same molecule?
Answer: 74%

Question: What about the viability, T/C [5] of the same molecule?
Answer: 32.3%

Question: What about the viability, T/C [6] of the same molecule?
Answer: 35.5%

Question: What about the viability, T/C [7] of the same molecule?
Answer: 101%

Question: And the viability, T/C [8]?
Answer: 91.8%

Question: What about the viability, T/C [9] of the same molecule?
Answer: 70.6%

Question: What about the viability, T/C [10] of the same molecule?
Answer: 70.1%

Question: What about the viability, T/C [11] of the same molecule?
Answer: 36.7%

Question: What about the viability, T/C [12] of the same molecule?
Answer: 39.5%

Question: What about the viability, T/C [13] of the same molecule?
Answer: 93.7%

Question: And the viability, T/C [14]?
Answer: 63.9%

Question: And the viability, T/C [15]?
Answer: 85.9%

Question: What about the viability, T/C [16] of the same molecule?
Answer: 58%

Question: What about the viability, T/C [17] of the same molecule?
Answer: 30.1%

Question: What about the viability, T/C [18] of the same molecule?
Answer: 33.2%

Question: And the viability, T/C [19]?
Answer: 86.6%

Question: And the viability, T/C [20]?
Answer: 92.6%

Question: What about the viability, T/C [21] of the same molecule?
Answer: 78.8%

Question: And the viability, T/C [22]?
Answer: 72.3%

Question: And the viability, T/C [23]?
Answer: 26.2%

Question: And the viability, T/C [24]?
Answer: 23%

Question: What about the viability, T/C [25] of the same molecule?
Answer: 77%

Question: What about the viability, T/C [26] of the same molecule?
Answer: 81.9%

Question: And the viability, T/C [27]?
Answer: 78.2%

Question: And the viability, T/C [28]?
Answer: 61.9%

Question: And the viability, T/C [29]?
Answer: 18.6%

Question: What about the viability, T/C [30] of the same molecule?
Answer: 9.94%

Question: And the viability, T/C [31]?
Answer: 60.9%

Question: And the viability, T/C [32]?
Answer: 54.3%

Question: What about the viability, T/C [33] of the same molecule?
Answer: 37.5%

Question: What about the viability, T/C [34] of the same molecule?
Answer: 25.9%

Question: What about the viability, T/C [35] of the same molecule?
Answer: 5.34%

Question: And the viability, T/C [36]?
Answer: 2.55%

From PubChem BioAssay AID2060486 (Molecular Pharmacology Branch, DTP, NCI, 2025)
